Patent US20260275295A1, “LIVER ORGANOIDS WITH INTRAHEPATIC SYMPATHETIC NERVES AND METHODS OF USE THEREOF” (CHILDREN'S HOSPITAL MEDICAL CENTER, priority 2023, published 2026)

Columns and labels:
[1] = test system: adrenergic receptor signaling; test: intracellular cAMP levels in human liver organoids; assay type: cell-based; settings: compared to untreated organoids
Description: The sympathetic neurons, or sympathetic nerves, in human liver organoids were ablated by 6-hydroxydopamine (6-OHDA), a sympathetic-specific toxin, and the intracellular levels of cyclic AMP (CAMP), a second messenger of adrenergic receptors in human liver organoids, were measured.

[2] = test system: hepatocytes of human liver organoids; test: TG accumulation in hepatocytes of organoids, live cell imaging with BODIPY 493/503; assay type: cell-based
Description: Next, it was determined whether sympathetic neurons, or sympathetic nerves, in human liver organoids contribute to lipid accumulation in hepatocytes. After treatment with 6-OHDA, triglyceride (TG) in hepatocytes of the organoids were measured by live cell imaging using BODIPY 493/503, a fluorescent probe for TG, and the accumulation of TG in hepatocytes of 6-OHDA-treated and untreated organoids was compared. TG accumulation in hepatocytes of 6-OHDA-treated organoids was about twice that of untreated organoids (FIG. 8A). In addition, TG accumulation in hepatocytes of organoids treated with 6-OHDA and then exposed to oleic acid (OA) for 3 days was about 3-fold higher than that of OA-only treated organoids (FIG. 8A).

human liver organoids = test: RT-qPCR of gluconeogenesis, lipogenesis and cytokine genes in liver organoids; assay type: cell-based
[3] = test system: human liver organoids (HLOs); test: immunostaining and cell volume analysis of TUBB3+ and TH+ nerves in HLOs; assay type: cell-based
Description: Single cell RNA sequencing (scRNAseq) and real-time PCR quantification of gene expression were performed in day 20 (D20) liver organoids, and it was noted that the neuron attractive factor BDNF was highly expressed in hepatic stellate-like cells of the liver organoids. (FIG. 13). HLOs were treated with and without 1 μM BDNF inhibitor ANA12 for 5 days from day 15 (D15) to day 20 (D20) of differentiation induction. […] (FIG. 14). […] HLOs were treated with and without 100 nM of BDNF for 13 days from day 15 (D15) to day 28 (D28) of differentiation induction.

foregut spheroids = test: real-time PCR of neural crest markers in foregut spheroids; assay type: cell-based, human; settings: 250 nM, 500 nM, or 1000 nM for 72 hours D3 to D6, PCR on D6
Description: (§1) Foregut spheroids were treated with 250 nM, 500 nM, or 1000 nM of the BMP inhibitor LDN193189 for 72 hours from day 3 (D3) to day 6 (D6) of differentiation, and real-time PCR quantification was performed on D6. […] (FIG. 12). […] (FIG. 15A).

[4] = test system: human liver organoids (HLOs); test: generation of neural crest cells and sympathetic neurons in HLOs (real-time PCR, whole mount immunostaining, flow cytometry); assay type: cell-based
Description: as §1

[5] = test system: human liver organoids (HLOs); test: gene expression of liver markers / liver induction in HLOs; assay type: cell-based
[6] = test system: human liver organoids (HLOs); test: albumin (ALB) secretion of HLOs; assay type: cell-based
[7] = test system: human liver organoids (HLOs); test: generation of neural crest cells and sympathetic neurons in HLOs (real-time PCR, whole mount immunostaining, flow cytometry); assay type: cell-based; remark: listed apart in the source
[8] = test system: HLO derived from two different iPS lines; test: amount of TH+ cells in OA-treated HLO (NASH model); assay type: cell-based, human; settings: OA treatment
Excerpt: FIG. 25 depicts the effect of OA treatment in increasing the amount of TH+ cells in HLO derived from two different iPS lines, showing an increase in innervation in a NASH model.
• 1. The distribution of sympathetic nerves projected to the liver is very different in humans as compared to experimental model animals, such as mice and rats. The presently described sympathetic neuron-containing human liver organoid model is expected to elucidate the distinctive mechanisms and timing of intrahepatic sympathetic projections during human liver development. • 2. Although it has been reported that sympathetic nerves contribute to the development and function of multiple organs, little is known regarding sympathetic nerves in the liver. This model leads to the identification of sympathetic effects on human liver development and the elucidation of their mechanisms of action. The model can also enable construction of enhanced (or mature) liver organoids by artificially regulating sympathetic nerve activity. • 3. The sympathetic nervous system has been reported to regulate gluconeogenesis in humans, but the mechanism by which it is promoted is unknown. Using this model, the mechanisms of human hepatic sympathetic innervation in gluconeogenesis can be elucidated. • 4. […] This model will allow us to identify the role of sympathetic nerves and their mechanisms in liver diseases. […]

[9] = RT-qPCR, 6-OHDA treated organoids vs control
[10] = steatosis conditions (oleic acid), relative to those not treated with 6-OHDA
[11] = SB alone, 10 μM, days 3-6, listed as SB

With `NCCc1cc(O)c(O)cc1O` [6-OHDA, 6-hydroxydopamine] the “concentration of cAMP” value [1] was “significantly decreased”, the “TG accumulation in hepatocytes” value ([2]; 6-OHDA then oleic acid (OA) for 3 days, vs OA-only treated organoids) was “about 3 fold” and the “TG accumulation in hepatocytes” value ([2]; 6-OHDA-treated vs untreated organoids) was “about twice”. For the same molecule, the “expression of CD36” value (human liver organoids; [9]) was “increased expression”, the “expression of G6PC” value (human liver organoids; [9]) was “increased expression” and the “expression of PCK1” value (human liver organoids; [9]) was “increased expression”. For the same molecule, the “expression of SCD” value (human liver organoids; [9]) was “increased expression”, the “expression of CXCL8 (IL8)” value (human liver organoids; [10]) was “increased expression” and the “expression of TNF” value (human liver organoids; [10]) was “increased expression”.

With `O=C(Nc1ccccc1C(=O)NC1CCCCNC1=O)c1cc2ccccc2s1` (centres unmarked) [ANA12] the “TH+ nerve production and elongation of nerves” value ([3]; 1 μM for 5 days, D15 to D20) was “suppressed TH+ nerve production and elongation of nerves”.

With `c1ccc2c(-c3cnn4cc(-c5ccc(N6CCNCC6)cc5)cnc34)ccnc2c1` [LDN193189] the “expression of neural crest marker FOXD3” value (foregut spheroids) was “increased expression”, the “expression of neural crest marker NGFR” value (foregut spheroids) was “increased expression” and the “expression of neural crest marker SOX10” value (foregut spheroids) was “increased expression”. For the same molecule, the “neural crest cells and TUBB3/TH+ neurons detected” value ([4]; 250 nM, days 3-6) was “high frequency”, the “induction of neural crest cells and TH/TUBB+ sympathetic neurons” value ([4]; 250 nM, days 3 to 6) was “optimal concentrations” and the “induction of neural crest cells and TH/TUBB+ sympathetic neurons” value ([4]; 500 nM, days 3 to 6) was “optimal concentrations”. The “TH/TUBB+ sympathetic neurons” value ([4]; 1000 nM, days 3 to 6) was “reduced”, the “production of neural crest cells” value ([4]; 1000 nM, days 3 to 6) was “reduced” and the “creation of sympathetic neurons, or sympathetic nerves” value ([4]; LDN 250 (nM)) was “reproducibly”. The “gene expression level of liver marker HNF4A” value ([5]; 250 nM, 500 nM, 1000 nM) was “decrease in a LDN concentration-dependent manner”, the “gene expression level of liver marker albumin (ALB)” value ([5]; 250 nM, 500 nM, 1000 nM) was “decrease in a LDN concentration-dependent manner” and the “gene expression of liver marker ALB” value ([5]; 250 nM, days 3-6) was “reduced”. For the same molecule, the “gene expression of liver marker HNF4A” value ([5]; 250 nM, days 3-6) was “reduced”, the “induction to the liver” value ([5]; timing of addition changed from Day 3-6 to Day 6-10) was “improves induction to the liver” and the ALB secretion lower ([6]; 250 nM LDN193189 alone or in combination with 10 μM SB431542, days 6-10) was “about ⅓”. The ALB secretion ([6]; 250 nM, days 3-6) was “reduced”, the “albumin secretion compared to existing HLOs” value ([6]; 250 nM, days 3-6) was 30-40 fold lower and the “reduction of albumin secretion compared to conventional HLOs” value ([6]; addition Day 6-10) was “a third”. The detection of neurons ([7]; 250 nM LDN193189 alone or in combination with 10 μM SB431542, days 6-10, rate varies between batches) was “sometimes detected”, the “expression of autonomic marker ASCL1” value ([7]; HLOs on day 20, treated days 3-6, real-time PCR) was “increased” and the “frequency of sympathetic generation” value ([7]; addition Day 6-10) was “varies between batches”.

In the case of `CC(C)NCC(O)c1ccc(O)c(O)c1` (centres unmarked) [isoproterenol], the “concentration of cAMP” value [1] is reported as “increased”.

For `NC[C@H](O)c1ccc(O)c(O)c1` [noradrenaline], the “concentration of cAMP” value [1] was “increased”.

For `NC(=O)c1ccc(-c2nc(-c3ccc4c(c3)OCO4)c(-c3ccccn3)[nH]2)cc1` [SB431542], the albumin secretion ([6]; SB431542 (10 μM) in addition to LDN (250 nM), days 3-6) was “minimal”, the “neural crest cells and TUBB3/TH+ neurons detected” value ([7]; 10 μM SB431542 with 250 nM LDN193189, days 3-6) was “detected earlier (day 15) and more frequently than in the other conditions” and the “TUBB+/TH+ sympathetic innervation” value ([7]; SB431542 in addition to LDN, Day 3-Day 6, LDN alone had not yet developed innervation on day 15) was “extensive TUBB+/TH+ sympathetic innervation was formed around day 15”. The TH signal ([7]; SB alone, 10 μM, days 3-6) was “no TH signal was observed”, the “TUBB3-positive cells / TUBB3+ innervation” value ([7]; SB alone, 10 μM, days 3-6) was “appeared” and the “expression of the parasympathetic marker CHAT” value ([7]; SB alone, 10 μM, days 3-6) was “detected in some TUBB3+ nerves”. For the same molecule, the “TUBB3-positive cells / TUBB3+ innervation” value [7, 11] was “observed” and the “expression of the parasympathetic marker CHAT” value [7, 11] was “detected in some cells”.

With `Cc1c[nH]c(-c2cnc(NCCNc3ccc(C#N)cn3)nc2-c2ccc(Cl)cc2Cl)n1` [CHIR] the “TUBB3+ neurons and SOX10 neural crest cells compared to LDN alone” value ([7]; 3 μM CHIR instead of 2 μM, with 250 nM LDN, days 3-6) was “more and More”.

With `CCCCCCCC/C=C\CCCCCCCC(=O)O` [OA, oleic acid] the “amount of TH+ cells in HLO” value [8] was “increasing”.

B1: BDNF: brain derived neurotrophic factor, neuron attractive factor (protein, UniProt P23560 19-247, looked up)
Neurotrophic factor BDNF …: APMKEANIRGQGGLAYPGVRTHGTLESVNGPKAGSRGLTSLADTFEHVIEELLDEDQKVRPNEENNKDADLYTSRVMLSSQVPLEPPLLFLLEEYKNYLDAANMSMRVRRHSDPARRGELSVCDSISEWVTAADKKTAVDMSGGTVTVLEKVPVSKGQLKQYFYETKCNPMGYTKEGCRGIDKRHWNSQCRTTQSYVRALTMDSKKRIGWRFIRIDTSCVCTLTIKRGR
B1 was tested, and the “nerves (TUBB3 immunostaining)” value ([3]; 100 nM for 13 days, D15 to D28) was “nerves tend to increase and elongate”.
